# Assay results taken from paper PMC10933344, “A lncRNA Dleu2-encoded peptide relieves autoimmunity by facilitating Smad3-mediated Treg induction” (EMBO Reports, 2024).
# Assays:
# [1] = test system: CD4+ T cells in CNS of EAE mice; test: Flow cytometry of CNS T cells of treated EAE mice; type: in vivo, mouse; details: 100 μg i.v., replicate 4
# [2] = test system: CD4+ T cells in spleen of EAE mice; test: Flow cytometry of spleen T cells of treated EAE mice; type: in vivo, mouse; details: 100 μg i.v.
# Experimental: Figure 5 Dleu2-17aa attenuates EAE by promoting Treg cells. (A) Schematic diagram of MOG-induced EAE and treatment strategies with Dleu2-17aa, scrPEP, and Glatiramer. Mice received 100 μg of Dleu2-17aa or scrPEP every 3 days via i.v. injection or 150 μg of Glatiramer every day for seven times via s.c. on days 9 to 15. (B) Clinical scores were examined daily from day 9 using a scoring system ranging from 0 (no sign) to 5 (complete paralysis or dead). The x-axis represents experimental days, and the y-axis represents symptom severity (n = 8–9). (C) Representative Luxol fast blue (LFB) and hematoxylin and eosin staining (H&E) staining sections for treated EAE spinal cord. Scale bars: 100 μm. (D) Histopathology scores of inflammations and demyelination in treated EAE mice spinal cord using a scoring system ranging from 0 (no inflammatory cells or demyelination) to 4 (extensive inflammatory cells infiltration or confluent foci of demyelination) (n = 5–8). (E) Representative dot plots (left panel) and frequency (right panel) of CD44^hiCD62L^lo activated T cells, Foxp3^+ Treg cells, IL-17A^+ Th17 cells, and IFN-γ^+ Th1 cells gated on CD4^+ T cells in the spleen 14 days post immunization of MOG (n = 3). (F) Representative dot plots and frequency of CD4^+, Foxp3^+ Treg cells, and IFN-γ^+ Th1 cells gated on CD4^+ T cells in the CNS 14 days post immunization of MOG (n = 3). Data information: n indicates biological replicate. Error bars are mean ± SEM; *P < 0.05, **P < 0.01, and ***P < 0.001, n.s. indicates no significant difference. Statistical analysis was by two-way ANOVA for (B) and two-tailed Student’s t-test for (D–F). Source data are available online for this figure. TEXT PRINTED IN THE PICTURE: (E) scrPEP: Spleen: CD62L-PE-DF594 / CD44-PE: 78.2; Spleen: Foxp3-PE / CD4-APC: 7.38; Spleen: IFN-γ-Percp-cy5.5 / Il-17A-FITC: 4.67; Spleen: IFN-γ-Percp-cy5.5 / Il-17A-FITC: 0.18; Spleen: IFN-γ-Percp-cy5.5 / Il-17A-FITC: 94.7; Spleen: IFN-γ-Percp-cy5.5 / Il-17A-FITC: 0.44 | (E) Dleu2-17aa: Spleen: CD62L-PE-DF594 / CD44-PE: 37.2; Spleen: Foxp3-PE / CD4-APC: 12.9; Spleen: IFN-γ-Percp-cy5.5 / Il-17A-FITC: 2.83; Spleen: IFN-γ-Percp-cy5.5 / Il-17A-FITC: 0.26; Spleen: IFN-γ-Percp-cy5.5 / Il-17A-FITC: 96.1; Spleen: IFN-γ-Percp-cy5.5 / Il-17A-FITC: 0.79 | (F) scrPEP: CNS: FSC / CD4-APC: 9.03; CNS: Foxp3-PE / CD4-APC: 8.47; CNS: IFN-γ-Percp-cy5.5 / Il-17A-FITC: 22.9; CNS: IFN-γ-Percp-cy5.5 / Il-17A-FITC: 2.00; CNS: IFN-γ-Percp-cy5.5 / Il-17A-FITC: 69.7; CNS: IFN-γ-Percp-cy5.5 / Il-17A-FITC: 5.44 | (F) Dleu2-17aa: CNS: FSC / CD4-APC: 3.33; CNS: Foxp3-PE / CD4-APC: 15.5; CNS: IFN-γ-Percp-cy5.5 / Il-17A-FITC: 13.9; CNS: IFN-γ-Percp-cy5.5 / Il-17A-FITC: 2.65; CNS: IFN-γ-Percp-cy5.5 / Il-17A-FITC: 77.7; CNS: IFN-γ-Percp-cy5.5 / Il-17A-FITC: 5.79 DOUBTS OF THE COPYIST ABOUT THIS PICTURE: Panels E and F: the gate and quadrant numbers in the dot plots are printed with no measure or unit; the tissue heading and the axis labels of each plot are written in front of them. For the quadrant plots the order is upper left, upper right, lower left, lower right. / Panels E and F: the gate numbers are in small print, so 3, 5, 6, 8 and 9 are best readings: E scrPEP 78.2, 7.38, 4.67, 0.18, 94.7; E Dleu2-17aa 37.2, 12.9, 2.83, 0.26, 96.1, 0.79; F scrPEP 9.03, 8.47, 22.9, 69.7, 5.44; F Dleu2-17aa 3.33, 15.5, 13.9, 2.65, 5.79.
# For active EAE immunization, myelin oligodendrocyte glycoprotein peptide (MOGp35–55, […], GenScript) was emulsified in complete Freund adjuvant (Sigma-Aldrich). An equivalent of 300 μg MOG peptide was injected per mouse subcutaneously followed by 200 ng of pertussis toxin (Merck-Calbiochem) injection intravenously on day 0 and day 2 of immunization. […]
sequence,measurement,setting,value
"ARGPARRMRGGRRRRLR [scrPEP, scrambled control peptide of Dleu2-17aa]",CD4+ / Live Cells(%),[1],10.2%
same,Foxp3+/ CD4+ Cells (%),[1],10.5%
same,IFN-γ+/ CD4+ Cells(%),[1],22.6%
same,CD62LloCD44+/ CD4+ Cells(%),[2]; replicate 1,58.3%
same,Foxp3+/ CD4+ Cells (%),[2]; replicate 1,7.65%
same,IFN-γ+/ CD4+ Cells(%),[2]; replicate 1,4.58%
same,CD62LloCD44+/ CD4+ Cells(%),[2]; replicate 2,60.9%
same,Foxp3+/ CD4+ Cells (%),[2]; replicate 2,6.51%
same,IFN-γ+/ CD4+ Cells(%),[2]; replicate 2,4.35%
same,CD62LloCD44+/ CD4+ Cells(%),[2]; replicate 3,61.3%
same,Foxp3+/ CD4+ Cells (%),[2]; replicate 3,6.5%
same,IFN-γ+/ CD4+ Cells(%),[2]; replicate 3,4.11%
same,CD62LloCD44+/ CD4+ Cells(%),[2]; replicate 4,78.2%
same,Foxp3+/ CD4+ Cells (%),[2]; replicate 4,6.85%
same,IFN-γ+/ CD4+ Cells(%),[2]; replicate 4,4.28%
